From ChEMBL document CHEMBL1201862, “PubChem BioAssay data set” (2004) come the findings set out here.

Common to all, as to assay: inhibition of tumour cell growth, NCI panel, 48 h
In assay [1] the test system is K562.
Assay [2] concerns NCI-H522.
In assay [3] the test system is UACC-62.
For assay [4], the system named is SF-268.
Assay [5] deals with HT-29.
Assay [6] relates to SNB-78.
In assay [7] the test system is NCI-H460.
For assay [8], the system named is OVCAR-5.
Assay [9] concerns A549.
Assay [10] concerns ACHN.
Assay [11] deals with EKVX.
Assay [12] has as its system OVCAR-3.
Assay [13] has as its system M14.
The test system of assay [14] is SNB-75.
The subject of assay [15] is U-251.
For assay [16], the system named is NCI-H226.
In assay [17] the test system is 786-0.
Assay [18] concerns SNB-19.
Assay [19] concerns MDA-MB-435.
In assay [20] the test system is NCI/ADR-RES.

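Tested at 5 concentrations; 48 h exposure; 96-well plates; endpoints linearly interpolated, else capped at highest concentration. GI50 is the concentration that inhibits growth by half.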 Active and inactive are the calls of the source. Cut-off read from the data, not from the text of the source: active = GI50 up to about 1.1 µM and inactive = higher. Bounds are passed on as bounds.

With `CC1CCCc2c(CC3CC(=O)NC(=O)C3)n[nH]c21` (stereo unspecified), the GI50 in assay [1], in assay [2], in assay [3], in assay [4], in assay [5] and in [6] was > 100 µM (inactive) each time. In addition, the GI50 in [7], in assay [8], in [9], in assay [10], in assay [11] and in [12] was > 100 µM (inactive) throughout. In addition, the GI50 in [13], in assay [14], in [15], in assay [16], in assay [17] and in assay [18] was > 100 µM (inactive) throughout.

With `O=C1OC(c2ccccc2)=N/C1=C/NC(CS)C(=O)O` (stereo unspecified), the GI50 in assay [1] was > 100 µM (inactive); in assay [2], 55.8 µM (inactive); in [3], > 100 µM (inactive); in assay [4], > 100 µM (inactive); in assay [5], > 100 µM (inactive); in assay [6], > 100 µM (inactive). Besides, the GI50 in assay [7], in [8], in assay [9], in [10], in assay [11] and in assay [12] was > 100 µM (inactive) throughout. Further, the GI50 in [13] is > 100 µM (inactive); in assay [14] it was 64.3 µM (inactive); in [15], > 100 µM (inactive); in assay [16], > 100 µM (inactive); in assay [17], > 100 µM (inactive); in assay [18] it was > 100 µM (inactive).

`Cc1ccccc1NC(=O)c1ccc([N+](=O)[O-])cc1`: the GI50 in assay [1] is 93.5 µM (inactive); in assay [2] it was 28 µM (inactive); in [3] it was > 100 µM (inactive); in assay [4], > 100 µM (inactive); in [5], 51.1 µM (inactive); in [6], > 100 µM (inactive). Besides, the GI50 was > 100 µM (inactive) in assay [7]; > 100 µM (inactive) in assay [8]; > 100 µM (inactive) in assay [9]; > 100 µM (inactive) in assay [10]; > 100 µM (inactive) in assay [11]; 53.5 µM (inactive) in assay [12]. Besides, the GI50 in assay [13], in assay [14], in [15], in [16], in assay [17] and in assay [18] was > 100 µM (inactive) throughout.

As for `CC[C@@]1(OC(=O)C(N)CCC(=O)O)C(=O)OCc2c1cc1n(c2=O)Cc2cc3ccccc3nc2-1` (stereo partly specified), the GI50 in assay [1] is 0.314 µM (active); in assay [2], 0.0536 µM (active); in assay [3], < 0.0152 µM (active); in assay [4], 0.0256 µM (active); in assay [5], 0.261 µM (active); in assay [6], 1.82 µM (inactive). In addition, the GI50 was 0.0112 µM (active) in assay [7]; 0.248 µM (active) in assay [8]; 0.0348 µM (active) in assay [9]; 0.0187 µM (active) in assay [10]; 1.44 µM (inactive) in assay [11]; 0.219 µM (active) in [19]. Besides, the GI50 in assay [12] is 0.417 µM (active); in assay [20], < 0.01 µM (active); in assay [13], 0.0347 µM (active); in [14], 0.0526 µM (active); in [15], 0.0202 µM (active); in assay [16] it was 0.0502 µM (active). In addition, the GI50 in assay [17] is 0.0206 µM (active); in [18], 0.0541 µM (active).

Regarding `O=C1C(c2ccccc2)=C(O)c2cccc3cccc1c23`, the GI50 in assay [1], in assay [2], in [3], in assay [4], in [5] and in assay [6] was > 100 µM (inactive) in each case. Also, the GI50 in [7] was > 100 µM (inactive); in assay [8], > 100 µM (inactive); in assay [9], > 100 µM (inactive); in [10], > 100 µM (inactive); in assay [11], > 100 µM (inactive); in assay [12], 47.4 µM (inactive). For the same compound, the GI50 is > 100 µM (inactive) in assay [13]; 40.3 µM (inactive) in assay [14]; > 100 µM (inactive) in [15]; 88.9 µM (inactive) in assay [16]; > 100 µM (inactive) in assay [17]; > 100 µM (inactive) in assay [18].

In the case of `COC1CC(C)C(OC)c2cc(O)cc(c2O)NC(=O)/C(C)=C/C=C\C(C)C(OC(N)=O)/C(C)=C\C(C)C1OC` (stereo unspecified), the GI50 in assay [2] was 0.0863 µM (active); in [3], 0.274 µM (active); in assay [4], 2.19 µM (inactive); in [5], 0.139 µM (active); in [6] it was 1.42 µM (inactive); in assay [7], 0.203 µM (active). In addition, the GI50 was 1.47 µM (inactive) in assay [8]; 2.51 µM (inactive) in assay [9]; 4.98 µM (inactive) in assay [10]; 10.5 µM (inactive) in [11]; 0.0998 µM (active) in assay [19]; 1.02 µM (active) in assay [13]. Besides, the GI50 in [14] is 0.776 µM (active); in assay [15], 0.497 µM (active); in [16], 7.35 µM (inactive); in [17], 2.03 µM (inactive); in [18], 3.78 µM (inactive).

`O=c1c2ccccc2c(=O)c2c1c1[nH]c3ccccc3c1c1c(=O)c3ccccc3c(=O)c21`: the GI50 in assay [1], in assay [2], in assay [3], in [4], in [5] and in assay [6] was > 100 µM (inactive) each time. Moreover, the GI50 in [7], in assay [8], in [9], in [10], in [11] and in assay [12] was > 100 µM (inactive) throughout. The GI50 in assay [13], in assay [14], in assay [15], in assay [16], in [17] and in assay [18] was > 100 µM (inactive) throughout.

With `Cc1cc(N(CCC#N)CCC#N)ccc1/C=C(\NC(=O)/C=C/c1ccccc1)C(=O)NN`, the GI50 in assay [1] was > 100 µM (inactive); in assay [2], > 56.1 µM (inactive); in assay [3], > 91 µM (inactive); in [4], > 53.2 µM (inactive); in assay [5] it was > 100 µM (inactive); in assay [6], > 100 µM (inactive). Also, the GI50 is > 66.8 µM (inactive) in assay [7]; > 100 µM (inactive) in assay [8]; > 100 µM (inactive) in [9]; > 80.9 µM (inactive) in [10]; > 73.3 µM (inactive) in assay [11]; > 100 µM (inactive) in assay [19]. Further, the GI50 in assay [12] is > 100 µM (inactive); in assay [20], > 100 µM (inactive); in assay [13], > 100 µM (inactive); in [14], 24.7 µM (inactive); in assay [15] it was 26 µM (inactive); in assay [16], > 55.6 µM (inactive). For the same compound, the GI50 was 30.6 µM (inactive) in assay [17] and > 40.9 µM (inactive) in assay [18].

Consider `CC(=O)OC(CC1(C)C(C)CCC23COC(=O)C2=CCCC31)c1ccoc1` (stereo unspecified), for which the GI50 in assay [1] is 23.4 µM (inactive); in [2], 18.5 µM (inactive); in assay [3] it was 23.1 µM (inactive); in [4] it was 15.9 µM (inactive); in assay [5], 29.6 µM (inactive); in [6], 25.4 µM (inactive). In addition, the GI50 in assay [7] was 40.4 µM (inactive); in [8], 28.2 µM (inactive); in assay [9], 31.6 µM (inactive); in [10], 28.8 µM (inactive); in assay [11] it was 30.5 µM (inactive); in assay [12] it was 20.8 µM (inactive). The GI50 in assay [13] was 16.3 µM (inactive); in [14], 23.3 µM (inactive); in [15], 15.8 µM (inactive); in assay [16], 16.7 µM (inactive); in assay [17], 17.1 µM (inactive); in [18], 25.4 µM (inactive).

With `N#C/C(=C\c1ccc(O)c(O)c1)C(N)=O`, the GI50 in [1] is 34.6 µM (inactive); in assay [2], 9.2 µM (inactive); in [3], 52.7 µM (inactive); in assay [4], 35 µM (inactive); in [5], 69.8 µM (inactive); in assay [6], > 100 µM (inactive). Moreover, the GI50 is 38 µM (inactive) in assay [7]; > 100 µM (inactive) in assay [8]; 46.2 µM (inactive) in assay [9]; 41.6 µM (inactive) in assay [10]; 53 µM (inactive) in [11]; 28.2 µM (inactive) in assay [12]. In addition, the GI50 in assay [13] is 55.6 µM (inactive); in [14], 17.7 µM (inactive); in [15], 33.9 µM (inactive); in assay [16] it was 37 µM (inactive); in assay [17], 20.6 µM (inactive); in assay [18], 38.5 µM (inactive).

For the compound `COc1cc(CCc2ccc(N)cc2)cc(OC)c1OC`, the GI50 in [1] is 46.1 µM (inactive); in [2], 31.5 µM (inactive); in assay [3], 38.7 µM (inactive); in [4], > 69.3 µM (inactive); in assay [5], 41.5 µM (inactive); in assay [6], 39.1 µM (inactive). The GI50 in assay [7] is 55.1 µM (inactive); in assay [8], > 100 µM (inactive); in assay [9] it was 51.6 µM (inactive); in assay [10], > 100 µM (inactive); in assay [11], > 66.5 µM (inactive); in assay [12], 41.1 µM (inactive). The GI50 in assay [13] was 54.6 µM (inactive); in assay [14] it was > 56 µM (inactive); in [15], > 53.2 µM (inactive); in [16] it was > 76.2 µM (inactive); in assay [17], > 92.7 µM (inactive); in [18], > 100 µM (inactive).
